pEC50: −log10 of the molar value. Entries after “also recorded” stand apart in the source; their conditions may differ.
Experiments:
[1] = tested on: GM03665 cells (fibroblasts from a subject with Friedreich's ataxia); test: RSL-3 Toxicity Assay (RSL-3 Assay); assay type: cell-based, human
Text: Example 14: RSL-3 Toxicity Assay (RSL-3 Assay)
This assay has been adapted from: Hinman, A., Holst, C. R., Latham, J. C., Bruegger, J. J., Ulas, G., McCusker, K. P., Amagata, A., Davis, D., Hoff, K. G., Kahn-Kirby, A. H., Kim, V., Kosaka, Y., Lee, E., Malone, S. A., Mei, J. J., Richards, S. J., Rivera, V., Miller, G., Trimmer, J. K., Shrader, W. D., “Vitamin E hydroquinone is an endogenous regulator of ferroptosis via redox control of 15-lipoxygenase”, (2018) PLoS ONE 13(8): e0201369.
In brief, GM03665 cells (Coriell Institute) were seeded in 96-well plates (Sarstedt) in DMEM cell culture media containing 10% Fetal Bovine serum and 1% Penicillin-Streptomycin (Pen-Strep) antibiotic mix at the amount of 2×10^4/mL (100 μL or 2×10^3 cells per well). Cells were left to rest overnight at 37° C. in a humidified atmosphere with 5% CO2 to allow attachment of the cells to the culture plate. Test compounds were prepared as DMSO stocks (10 mM) and were serially diluted in cell culture media to obtain 2× working solutions. Cell media was discarded and replaced by 50 μL of test compound solutions or cell media with vehicle for control wells. Within 15 minutes, 2× working solution (4 μM) of 1S,3R-RSL-3 (CAS #1219810-16-8, Sigma-Aldrich) (diluted from 5 mM DMSO stock in cell culture media) was added. Final reaction volume was 100 μL and final DMSO concentration in reaction was kept below 0.2% (v/v) and equal in all wells. Final RSL-3 concentration was 2 μM and test compound final concentrations in reaction were up to 1000 nM. After 24 hours of incubation cell viability was assessed by MTT test. MTT (Sigma-Aldrich) solution 1 mg/mL in IX PBS (pH=7.4) was prepared 1 hour before the assay and filtered through Filtropur S 0.2 filters (Sarstedt). Cell media with test compounds was discarded and 100 μL of MTT solution was added to cells. The plates were incubated for 2 hours at +37° C. Thereafter, the MTT solution was removed and 100 μL of isopropanol was added to dissolve sediment. Absorption at 570 and 650 nm was measured using Hidex Sense microplate reader.
Compounds A and B and idebenone were not examined in this assay. The data presented in Table 1 indicates omaveloxolone was not active in this assay but that vatiquinone was active.
Discussion—Both BSO and RSL-3 are frequently utilized to induce the regulated cell death pathway known as ferroptosis. Ferroptosis is thought to require the joint activity of iron catalyzed oxidative stress and lipid peroxidation and has been described in cell and animal models of multiple neurodegenerative diseases, including Friedreich's Ataxia, Huntington Disease, Parkinson Disease and Alzheimer's Disease. […] Of note, the results for Compounds C-I and K were favorable with respect to inhibition of ferroptotic cell death when either BSO or RSL3 were used as initiating stimulus, differentiating these compounds from omaveloxolone and idebenone.

[2] = tested on: HepG2 cells; test: Rotenone Oxygraph Assay (high-resolution respirometry of intact HepG2 cells); assay type: cell-based, human
Description: Example 15: Rotenone Oxygraph Assay (High-Resolution Respirometry of Intact HepG2 Cells)
The Oxygraph-2k (O2k, OROBOROS INSTRUMENTS, Austria) was used for measurements of respiration of intact cells. The respirometry was performed in Dulbecco's Modified Eagle Medium (DMEM) high glucose without supplements. All experiments were performed at 37° C.
HepG2 cells (ATCC collection code HB-8065™) were cultured in 10 cm^2 culture dishes in DMEM high glucose medium supplemented with 10% fetal bovine serum (FBS) and 100 units/mL penicillin and 100 μg/mL streptomycin until approximately 90% confluence was reached. Immediately prior to performing the respirometric assay, the cells were washed with media without FBS, trypsinized and resuspended in DMEM high glucose without FBS.
The final concentration of intact cells in the O2k-chamber was 0.5-10^6/mL. After stabilization of respiration, the Complex I inhibitor, rotenone, at 1 μM final concentration was added to inhibit electron flux via Complex I. Then, compound to be tested was added at 10 μM final concentration, and the change in respiration rate of intact cells was monitored. […]

[3] = tested on: HepG2 human hepatocarcinoma cells; test: Rotenone ATP Assay (Complex I by-pass assay); assay type: cell-based
Description: Example 13: Rotenone ATP Assay (a Complex I by-Pass Assay)
This assay has been adapted from Haefeli R H, Erb M, Gemperli A C, Robay D, Courdier Fruh I, et al. (2011) NQO1-Dependent Redox Cycling of Idebenone: Effects on Cellular Redox Potential and Energy Levels. PLoS ONE 6(3): e17963. HepG2 human hepatocarcinoma cells are co-incubated with the electron transport chain complex I toxin rotenone +/− compounds of interest and the corresponding effect on ATP synthesis is measured with a bioluminescent substrate.
The stock solutions of the test articles (See Table 1, below for a list of the test articles examined using this assay) were prepared in dimethyl sulfoxide (DMSO at 10 mM). Working stock solutions were prepared on the day of the experiment in glucose free, serum free Dulbecco's modified Eagles medium (DMEM) supplemented with 50 micromolar rotenone.
In brief, HepG2 cells were plated at 25,000 cells per well in low glucose (1 gram/Liter) DMEM medium+10% fetal calf serum and incubated for 24 hours. The following day, the media was decanted and subsequently replaced with glucose free/serum free DMEM which has been supplemented with 50 micromolar rotenone and compound of interest. Serial dilutions of compound were prepared in 3× dilutions beginning at 25 micromolar. The cells were incubated for 60 minutes in a humidified tissue culture incubator. Following incubation, ATP levels were quantified via bioluminescent assay (Promega […] Glo Assay kit) and readings were captured on a standard microplate reader.
ATP bioluminescence is plotted versus the log of compound of interest and data are used to generate EC50 values. Curve fitting is performed using a sigmoidal dose response curve fit function (GraphPad Prism software).
EC50 values were derived from seven-point dose response curves performed on n=3 technical replicates per dose. Robustness of curve fit was assessed as a quality control measure, with an R squared value of at least 0.80 being required for a successful curve fit. Compounds of interest showing an increase in ATP bioluminescence relative to vehicle control were verified in an independent biological replicate of n=3 technical replicates per dose.
This assay is a direct measure of the ability of compounds of interest to restore ATP production under conditions of inhibition of Complex I of the mitochondrial electron transport chain. As the majority of ATP produced via the electron transport chain is thought to derive from Complex I activity, significant impairment in Complex I function has dire biological consequences. Of note, Complex I mutations are thought to drive pathophysiology in multiple mitochondrial diseases, including Leigh syndrome and Leber's Hereditary Optic Neuropathy (LHON), while diminished Complex I activity and the resultant attenuation of ATP production has been shown in neurodegenerative diseases, including Friedreich's Ataxia, Parkinson's Disease and Huntington's Disease. In brief, most compounds were tested in the Rotenone Oxygraph Assay instead of this assay but only Idebenone was active amongst Omaveloxolone, Idebenone and Vatiquinone.

[4] = tested on: frataxin deficient fibroblasts (GM03665) from Friedreich's ataxia patient; test: Frataxin Deficient Fibroblast Viability Assay (BSO Assay); assay type: cell-based
Description: Example 12: Frataxin Deficient Fibroblast Viability Assay (the “BSO Assay”)
This Example was used to evaluate the various new compositions for their potential efficacy in the treatment of Friedreich's Ataxia (FA or FRDA)—substantially as described in the above cited Reference (Matthias et al.).
The stock solutions of the test articles (and control compounds) were prepared in dimethyl sulfoxide (DMSO at 10 mM), Working stock solutions (2 times concentrated) were prepared on the day of the experiment in respective cell culture medium to be used for assay (detailed medium description below). A listing of compounds used as test articles in this Example 12 are found in Table 1, below.
A patient derived frataxin deficient fibroblast cell line was obtained from Coriell Institute. More specifically, the following cell lines/DNA samples were obtained from the NIGMS Human Genetic Cell Repository at the Coriell Institute for Medical Research: GM03665. To evaluate importance of various growth conditions on cell susceptibility to BSO toxicity cells were grown on:
MEM (Sigma-Aldrich) 15% Fetal Bovine Serum (FBS) without growth factors;
MEM (Sigma-Aldrich) 15% FBS with growth factors (Catalogue number 100-18B, Recombinant Human FGF-basic (154 a.a.) and catalogue number AF-100-15, Animal-Free Recombinant Human EGF from Peprotech);
MEM199/MEM EBS (Bioconcept Ltd.) 10% FBS, insulin 10 μg/ml, L-glutamine 2 mM with growth factors (Catalogue number 100-18B, Recombinant Human FGF-basic (154 a.a.) and catalogue number AF-100-15, Animal-Free Recombinant Human EGF from Peprotech).
To conduct an experiment, fibroblast cells (from all growth conditions) were seeded (100 μL (cells 3×10^3/well) on 96-well plates in MEM199/MEM EBS medium 10% FBS, insulin 10 μg/mL, L-glutamine 2 mM with growth factors and allowed to grow on plate for 24 hrs. After 24 hrs., media was removed and then test compounds of interest were added (100 μL, 2 times concentrated stock) to 96-well plates (end DM80 concentration not exceeding 0.5%) and incubated for 24 hours. Then L-buthionine-sulfoximine (BSO, from Acros Organics, Cat. No. 235520010) was added (100 μL, 2 times concentrated stock) at end concentrations ranging from 1 to 10 mM. Both test compounds and BSO were dissolved in MEM199/MEM EBS medium 10% FBS, insulin 10 μg/mL, L-glutamine 2 mM with growth factors. Cell viability was monitored and either after 24- or 48-hours cell viability was assayed by MTT (Thiazolyl blue tetrazolium bromide) assay. For the MTT assay, media was removed and 100 μL of MTT 1 mg/mL was added, incubated for 2 hours at +37° C., then medium was removed and 100 μL of isopropanol added to dissolve sediment. Absorption was measured at 570 (OD570) and 650 (QD650) nm wavelengths. Control cells (vehicle instead of BSO and compound) and vehicle control (with BSO, but vehicle instead of test compound) were treated in the same manner as ceils with BSO and compound. All cell media contained penicillin and streptomycin 100 U/mL each.
Absorption readouts were processed as follows: ValueΔ=ValueOD570−ValueOD650 and the obtained values were used to calculate cell viability as % of control cell (i.e., no BSO, no compound, just vehicle) viability.
Except as otherwise indicated in Table 1, all samples were run in at least 3 replicates for test compounds and at least 8 replicates for controls (i.e., both control (no BSO, no compound) and vehicle control (i.e., with BSO, no compound). Exact N per data points are indicated in the figures/table legends. Results for the compounds (test articles and controls) tested are listed in Table 1, below.
This is a cell-based assay measuring cytotoxicity which results from oxidative stress subsequent to depletion of endogenous glutathione defense mechanisms. The cells were primary Friedreich Ataxia (FA) patient fibroblasts which were incubated for 48 hrs. in BSO, an inhibitor of gamma glutamyl synthetase, an enzyme required for glutathione production. […]

SMILES | protection against RSL-3 toxicity (in words) [1] | pEC50 ([1]; Homo sapiens, Fibroblast, GM03665 cells, RSL-3 2 μM, 24 hours, MTT) | Complex I by-pass activity in Rotenone Oxygraph Assay (in words) [2] | Rotenone Oxygraph Assay % Increase ([2]; intact HepG2 cells, rotenone 1 μM, compound 10 μM, increase in respiration rate) | Complex I by-pass activity in Rotenone ATP Assay (in words) [3] | ATP Rotenone Assay EC50 ([3]; HepG2, 50 micromolar rotenone, 60 minutes, ATP bioluminescence) | protection against BSO induced cell death (in words) ([4]; BSO Assay, text statement) | pEC50 ([4]; Homo sapiens, Fibroblast, FA patient fibroblasts pretreated with compound, BSO 10 mM, MTT after 48 hrs) | activation at 10 µM ([2]; Homo sapiens, intact HepG2 cells, rotenone 1 μM, compound 10 μM, increase in respiration rate) [%]
CC(C)=CCC/C(C)=C/CC/C(C)=C/CC[C@@](C)(O)CCC1=C(C)C(=O)C(C)=C(C)C1=O [Vatiquinone, reference compound] | active | 7.25 | inactive | Inactive | inactive | Inactive | – | – | –
COC1=C(OC)C(=O)C(CCCCCCCCCCO)=C(C)C1=O [Idebenone, reference compound] | – | – | active | – | active | – | not really very protective at all; also recorded: only very weakly active | < 6.00 | 70.2

Source: patent US12037350B2, “Compositions and methods for the prevention and/or treatment of mitochondrial disease, including Friedreich's ataxia” (Stealth BioTherapeutics Inc., priority 2020, dated 2024)
